Data: patent US7396837B2, “Antitumoral analogs of lamellarins” (Pharma Mar, S.A.U., priority 2002, dated 2008)
Entries after “also recorded” stand apart in the source; their conditions may differ. Where two headings read alike, the source gives them in different places.

Key:
LoVo-Dox = experiment: SRB colorimetric cell growth inhibition assay, LoVo-Dox (MDR); format: cell-based; conditions: Homo sapiens, LOVO-DOX; for GI50: GI=growth inhibition, read-out: GI50 LOVO-DOX; for CC50: LC=cell killing (cytotoxic effect), read-out: LC50 LOVO-DOX; for IC (TGI): TGI=total growth inhibition (cytostatic effect), read-out: TGI LOVO-DOX
Method in brief: (§1)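 Continuous drug exposure of human cancer cells; SRB protein stain read-out; triplicate wells, mean ± SD; GI, TGI, LC computed.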

IGROV-ET = experiment: SRB colorimetric cell growth inhibition assay, IGROV-ET (ET-743 resistant); format: cell-based; conditions: Homo sapiens, IGROV-ET; for GI50: GI=growth inhibition, read-out: GI50 IGROV-ET; for CC50: read-out: LC50 IGROV-ET; for IC (TGI): read-out: TGI IGROV-ET
Method in brief: as §1

A-549 = experiment: SRB colorimetric cell growth inhibition assay, A-549; format: cell-based; conditions: Homo sapiens, A549, A-549; for GI50: GI=growth inhibition, read-out: GI50 A-549; for CC50: LC=cell killing (cytotoxic effect), read-out: LC50 A-549; for IC (TGI): TGI=total growth inhibition (cytostatic effect), read-out: TGI A-549
Method in brief: as §1

PANC-1 = experiment: SRB colorimetric cell growth inhibition assay, PANC-1; format: cell-based; conditions: Homo sapiens, PANC-1, PANC-1; for GI50: GI=growth inhibition, read-out: GI50 PANC-1; for CC50: LC=cell killing (cytotoxic effect), read-out: LC50 PANC-1; for IC (TGI): TGI=total growth inhibition (cytostatic effect), read-out: TGI PANC-1
Method in brief: as §1

K-562 = experiment: SRB colorimetric cell growth inhibition assay, K-562; format: cell-based; conditions: Homo sapiens, K562, K-562; for GI50: GI=growth inhibition, read-out: GI50 K-562; for CC50: LC=cell killing (cytotoxic effect), read-out: LC50 K-562; for IC (TGI): TGI=total growth inhibition (cytostatic effect), read-out: TGI K-562
Method in brief: as §1

human topoisomerase I = target: T1, human topoisomerase I (Homo sapiens, UniProt P11387); experiment: Topoisomerase I DNA relaxation assay (supercoiled plasmid DNA); format: biochemical; conditions: supercoiled plasmid DNA, each compound tested at 1 μM, agarose gel with ethidium bromide
T1 sequence (P11387 1-765): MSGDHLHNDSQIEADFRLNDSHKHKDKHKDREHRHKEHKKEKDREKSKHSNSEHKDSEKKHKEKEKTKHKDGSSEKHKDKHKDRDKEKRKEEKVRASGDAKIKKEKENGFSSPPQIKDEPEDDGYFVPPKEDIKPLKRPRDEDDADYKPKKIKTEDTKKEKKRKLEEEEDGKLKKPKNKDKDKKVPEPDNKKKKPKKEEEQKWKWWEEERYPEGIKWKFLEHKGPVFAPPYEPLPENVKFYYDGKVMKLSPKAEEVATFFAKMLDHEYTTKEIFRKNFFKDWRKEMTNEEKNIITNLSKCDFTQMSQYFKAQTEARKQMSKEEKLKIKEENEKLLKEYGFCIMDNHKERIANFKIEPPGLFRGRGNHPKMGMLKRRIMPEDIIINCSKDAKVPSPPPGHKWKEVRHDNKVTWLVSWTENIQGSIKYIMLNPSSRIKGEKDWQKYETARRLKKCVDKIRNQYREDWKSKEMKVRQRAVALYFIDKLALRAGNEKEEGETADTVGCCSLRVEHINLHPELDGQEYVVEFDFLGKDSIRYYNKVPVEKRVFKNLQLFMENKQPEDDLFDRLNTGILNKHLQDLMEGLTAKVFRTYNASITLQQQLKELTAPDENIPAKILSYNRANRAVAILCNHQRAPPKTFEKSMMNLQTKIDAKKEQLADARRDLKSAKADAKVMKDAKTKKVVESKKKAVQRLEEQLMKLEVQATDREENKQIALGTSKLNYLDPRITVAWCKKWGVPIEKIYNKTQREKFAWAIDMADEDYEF
Method in brief: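 Test compounds (1 μM each) were present during topoisomerase I relaxation of supercoiled plasmid DNA. Relaxation was assessed on ethidium bromide-stained agarose gels.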

IGROV = experiment: SRB colorimetric cell growth inhibition assay, IGROV; format: cell-based; conditions: Homo sapiens, IGROV; for GI50: GI=growth inhibition, read-out: GI50 IGROV; for CC50: read-out: LC50 IGROV; for IC (TGI): read-out: TGI IGROV
Method in brief: as §1

LoVo = experiment: SRB colorimetric cell growth inhibition assay, LoVo; format: cell-based; conditions: Homo sapiens, LoVo; for GI50: GI=growth inhibition, read-out: GI50 LOVO; for CC50: LC=cell killing (cytotoxic effect), read-out: LC50 LOVO; for IC (TGI): TGI=total growth inhibition (cytostatic effect), read-out: TGI LOVO
Method in brief: as §1

HT-29 = experiment: SRB colorimetric cell growth inhibition assay, HT-29; format: cell-based; conditions: Homo sapiens, HT-29, HT-29; for GI50: GI=growth inhibition, read-out: GI50 HT-29; for CC50: LC=cell killing (cytotoxic effect), read-out: LC50 HT-29; for IC (TGI): TGI=total growth inhibition (cytostatic effect), read-out: TGI HT-29
Method in brief: as §1

LNCaP = experiment: SRB colorimetric cell growth inhibition assay, LNCaP; format: cell-based; conditions: Homo sapiens, LNCaP, LN-caP; for GI50: GI=growth inhibition, read-out: GI50 LN-caP; for CC50: read-out: LC50 LN-caP; for IC (TGI): read-out: TGI LN-caP
Method in brief: as §1

DU-145 = experiment: SRB colorimetric cell growth inhibition assay, DU-145; format: cell-based; conditions: Homo sapiens, DU-145, DU-145; for GI50: GI=growth inhibition, read-out: GI50 DU-145; for CC50: read-out: LC50 DU-145; for IC (TGI): read-out: TGI DU-145
Method in brief: as §1

SK-BR-3 = experiment: SRB colorimetric cell growth inhibition assay, SK-BR-3; format: cell-based; conditions: Homo sapiens, SK-BR-3, SK-BR-3; for GI50: GI=growth inhibition, read-out: GI50 SK-BR-3; for CC50: read-out: LC50 SK-BR-3; for IC (TGI): read-out: TGI SK-BR-3
Method in brief: as §1

SK-MEL-28 = experiment: SRB colorimetric cell growth inhibition assay, SK-MEL-28; format: cell-based; conditions: Homo sapiens, SK-MEL-28, MEL-28; for GI50: GI=growth inhibition, read-out: GI50 MEL-28; for CC50: read-out: LC50 MEL-28; for IC (TGI): read-out: TGI MEL-28
Method in brief: as §1

[1] = cell killing (cytotoxic effect)
[2] = total growth inhibition (cytostatic effect)
[3] = LC=cell killing (cytotoxic effect)
[4] = TGI=total growth inhibition (cytostatic effect)

Structure (SMILES)	GI50 (LoVo-Dox)	CC50 (LoVo-Dox)	IC (TGI) (LoVo-Dox)	GI50 (IGROV-ET)	GI50 (A-549)	CC50 (A-549)	IC (TGI) (A-549)	GI50 (PANC-1)	CC50 (PANC-1)	IC (TGI) (PANC-1)	GI50 (K-562)	CC50 (K-562)	IC (TGI) (K-562)	stimulation of DNA cleavage by topoisomerase I / inhibition of topoisomerase I (nicked DNA band) in DNA relaxation assay (human topoisomerase I)	GI50 (IGROV)	GI50 (LoVo)	CC50 (LoVo)	IC (TGI) (LoVo)	GI50 (HT-29)	CC50 (HT-29)	further results
COc1cc(-c2c3c4cc(OC)c(OC(=O)[C@@H](N)C(C)C)cc4oc(=O)c3n3ccc4cc(OC(=O)[C@@H](N)C(C)C)c(OC)cc4c23)ccc1OC(=O)[C@@H](N)C(C)C [Compound 36]	145 nM	8.78 µM	0.525 µM	76.5 nM	32.8 nM	1.69 µM	0.154 µM	169 nM	8.78 µM	1.13 µM	9.48 nM	5.7 µM	0.188 µM	marked inhibition of topoisomerase I; also recorded: stimulated DNA cleavage by the enzyme	46.9 nM	158 nM	0.652 µM	0.321 µM	1510 nM	8.78 µM	CC50 (IGROV-ET; [1]): 8.78 µM; IC (TGI) (IGROV-ET; [2]): 0.54 µM; CC50 (IGROV; [1]): 7.95 µM; IC (TGI) (IGROV; [2]): 0.409 µM; IC (TGI) (HT-29): 4.08 µM; GI50 (LNCaP): 42.8 nM; CC50 (LNCaP; [1]): 424 nM; IC (TGI) (LNCaP; [2]): 0.156 µM; GI50 (DU-145): 10.8 nM; CC50 (DU-145; [1]): 0.668 µM; IC (TGI) (DU-145; [2]): 0.0383 µM; GI50 (SK-BR-3): 39.6 nM; CC50 (SK-BR-3; [1]): 2.94 µM; IC (TGI) (SK-BR-3; [2]): 0.221 µM; GI50 (SK-MEL-28): 31.9 nM; CC50 (SK-MEL-28; [1]): 2.7 µM; IC (TGI) (SK-MEL-28; [2]): 0.181 µM
COc1cc(-c2c3c4cc(OC)c(OC(=O)[C@H](C)N)cc4oc(=O)c3n3ccc4cc(OC(=O)[C@H](C)N)c(OC)cc4c23)ccc1OC(=O)[C@H](C)N [Compound 40]	470 nM	9.48 µM	3.35 µM	85.2 nM	31.6 nM	9.48 µM	0.27 µM	254 nM	9.48 µM	3.27 µM	58.2 nM	4.61 µM	0.986 µM	marked inhibition of topoisomerase I	44.9 nM	223 nM	6.41 µM	0.884 µM	3570 nM	9.48 µM	CC50 (IGROV-ET; [3]): 9.48 µM; IC (TGI) (IGROV-ET; [4]): 0.557 µM; CC50 (IGROV; [3]): 5.04 µM; IC (TGI) (IGROV; [4]): 0.391 µM; IC (TGI) (HT-29): 9.48 µM; GI50 (LNCaP): 130 nM; CC50 (LNCaP; [3]): 4380 nM; IC (TGI) (LNCaP; [4]): 0.447 µM; GI50 (DU-145): 16.2 nM; CC50 (DU-145; [3]): 9.48 µM; IC (TGI) (DU-145; [4]): 0.094 µM; GI50 (SK-BR-3): 816 nM; CC50 (SK-BR-3; [3]): 9.48 µM; IC (TGI) (SK-BR-3; [4]): 3.25 µM; GI50 (SK-MEL-28): 41.2 nM; CC50 (SK-MEL-28; [3]): 9.48 µM; IC (TGI) (SK-MEL-28; [4]): 0.595 µM
